PMC6759624, “Unraveling Heparan Sulfate Proteoglycan Binding Motif for Cancer Cell Selectivity” (Frontiers in Oncology, 2019)
Entries after “also recorded” stand apart in the source; their conditions may differ.

Experiments:
syndecan-3 = assay: SPR, NT4 binding to recombinant syndecan-3; design: species or system human; conditions: rHSPG 25 μg/mL over immobilized NT4
Method: (§1) Experiments were performed on a Biacore T100 instrument (GE Healthcare). All materials were purchased from GE Healthcare unless otherwise specified. Full-length recombinant human HSPG were purchased from R&D Systems. Syndecan-3, syndecan-4, and glypican-3 were obtained from the mouse myeloma cell line (NS0), and glypican-4 was obtained from the Chinese Hamster Ovary cell line. The activity of syndecan-4, glypican-3, and glypican-4 was measured by the supplier as the ability of the immobilized protein to bind FGF-basic. The activity of syndecan-3 was measured by the supplier as the ability of the immobilized protein to inhibit adhesion of Saos-2 human osteosarcoma cells to human fibronectin.
(§2) NT4-biotin was captured on a CM5 sensor chip where streptavidin had previously been immobilized by standard amine coupling. Briefly, the sensor chip surface was activated with a mixture of 0.1 M 1-ethyl-3(3-dimethylaminopropyl)-carbodiimide (EDC) and 0.4 M N-hydroxyl succinimide (NHS) for 7 min at a flow rate of 5 μl/min. Streptavidin was injected over the surface for 7 min, and finally, 1 M ethanolamine pH 8.5 was used to block any activated carboxyl groups. […]
(§3) Kinetics were analyzed with the Biacore T100 evaluation 1.1.1 software using the 1:1 Langmuir model to fit the curves.

syndecan-4 = assay: SPR, NT4 binding to recombinant syndecan-4; design: species or system human; conditions: rHSPG over immobilized NT4
Method: as §1, §2, §3

[1] = test system: HT-29, PANC-1, MCF-7, and MDA-MB-231 cells; assay: NT4 cell binding versus sulfatase expression in cell panel; assay type: cell-based, human; conditions: SULF-1 and SULF-2 expression (RT-PCR; SULF-1 also Western blot) versus flow cytometry binding
Method: PANC-1 human pancreas adenocarcinoma, HT-29 human colon adenocarcinoma, and MCF-7 and MDA-MB-231 human breast adenocarcinoma cells were grown in the recommended American Type Culture Collection (ATCC) media, supplemented with 10% fetal calf serum, 200 μg/ml glutamine, 100 μg/ml streptomycin, 60 μg/ml penicillin, and maintained at 37°C, 5% CO2. Cell lines were purchased from ATCC, and cell profiling was analyzed to authenticate human cell lines (BMR Genomics). All experiments were performed using 2 × 10^5 cells in 96-well U-bottom plates. All dilutions were performed in phosphate-buffered saline (PBS), containing 5 mM EDTA and 1% bovine serum albumin (BSA). […] P values were calculated using a two-tailed Student t-test and GraphPad Prism 5.0 software. […] RNA was quantified by spectrophotometry at 260 and 280 nm and verified by agarose gel electrophoresis. The same quantity of RNA for every cell line was loaded on the gel. […] Signals were detected using Image LAS4010 (GE Healthcare). […] P values were calculated using a one-tailed Student t-test and GraphPad Prism 5.0 software. […] Signals were detected using Image LAS4010 (GE Healthcare). […] P values were calculated using a parametric, unpaired Student t-test, and GraphPad Prism 5.0 software.

[2] = ref [9], [10]; cited from earlier work
Excerpt: (§4) NT4 peptide is a tetrabranched peptide that binds to GAG chains of HSPG. […] NT4 binds cell lines of different human cancers, including colon adenocarcinoma, pancreas adenocarcinoma, bladder cancer, and breast cancer ([11], [12]).

PgsA-745 cells = conditions: Chinese hamster ovary cell mutant, deficient in xylosyltransferase; ref [13]; cited from earlier work
Excerpt: as §4

[3] = test system: cell lines of different human cancers, including colon adenocarcinoma, pancreas adenocarcinoma, bladder cancer, and breast cancer; conditions: ref [11], [12]; cited from earlier work
Excerpt: as §4

[4] = design: method as in PMID 27255651; conditions: compared with heparin and HS; ref [13]; cited from earlier work
cancer cells or tissues = test system: cancer cells or tissues; design: method as in PMID 27255651, PMID 23713525; conditions: competitors heparin and HS; ref [13], [19]; cited from earlier work

binding to syndecan-4 (syndecan-4): binds
Substance: (pyELYENKPRRPYIL)4K2K-beta-Ala [NT4]
binding to syndecan-3 (syndecan-3): does not bind; also recorded: did not bind
correlation of NT4 binding with sulfatase expression [1]: inversely correlated with sulfatase expression; also recorded: inversely correlated with expression of sulfatases
half-life (in words) [2]: long half-life
stability to proteolytic enzymes [2]: stable to proteolytic enzymes
binding to cells lacking GAG chains (PgsA-745 cells): does not bind
binding to human cancer cell lines [3]: binds
binding to chondroitin sulfate [4]: lower affinity
inhibition of NT4 binding and internalization by heparin and HS (cancer cells or tissues): completely inhibited
